What was measured:
HSV-1 McKrae Strain = assay: Direct virucidal efficacy against HSV-1 on HFF monolayers; assay type: cell-based; conditions: for virucidal efficacy (HSV-1 titer): Experiment 5 (Table 12), 24 h PI
Method: HSV-1 McKrae Strain was diluted to a final concentration of 10^5 PFU/ml in minimal essential medium (MEM). Hereinafter, this dilution is referred to as the HSV-1 Suspension for convenience.
(§1) With sufficient stirring, all the compounds completely dissolved.
Each of the drug solutions were mixed with the HSV-1 Suspension in a 1:1 ratio. The drug and HSV-1 Suspension mixture was incubated at 37° C. for thirty minutes with agitation every ten minutes. After the incubation, fifty microliter aliquots were overlaid onto triplicate confluent human foreskin fibroblast (HFF) cell monolayers. The inoculum was absorbed for thirty minutes and then a medium containing the appropriate drug concentration in MEM was added to the monolayers to a final volume of 0.5 milliliters per culture-well. The monolayers were incubated at 37° C. The developing HSV-1 Cytopathology was monitored daily for two days by inverted light microscopy. Titers were calculated by multiple regression analysis. All data is presented as the average PFU/ml reduction at 24 and/or 48 hours after inoculation (PI).
1. HSV-1 inoculated, non-compound treated HFF monolayers were included as "positive controls"; and […]

[1] = test system: human foreskin fibroblast (HFF) cell monolayers; assay: Toxicity effects controls: sham-inoculated compound-treated HFF monolayers; assay type: cell-based; conditions: Experiment 5 (Table 13); further: key: +: toxic; -: no toxicity; ±: mild toxicity; T: toxicity effects interfered with CPE rating
Excerpt: as §1
In the tables, the symbols have the meaning indicated: […]

RE strain HSV-1 [2] = assay: HSV-1 recovery from tear film, cornea and trigeminal ganglia of treated rabbits; assay type: in vivo, NZW rabbit
Excerpt: The specified number of NZW rabbits (1.5-2.0 kg) were used. Animals were received at least two days prior to inoculation to allow them to accommodate to the conditions in the vivarium facility. This conditioning of the animals prior to inoculation minimizes animal variability. After the accommodation, the animals received a slit-lamp examination to exclude any animals with pre-existing anterior segment ocular defects. Animals were bi-laterally inoculated by intrastromal injection of 10^5 PFU RE strain HSV-1. The animals were then replaced individually into cages.
[…] This was carried out by obtaining tear film by swabbing the lower and upper conjunctival sacs and retaining the swab in the nasal fornix for 10 seconds. The swabs were eluted individually in HBSS. 50 μl aliquots of the virus-HBSS eluate were absorbed under confluent HFF cell monolayers for 5 minutes. The monolayers were hydrated with MEM, incubated at 37° C. and observed daily for 1 to 2 weeks to detect developing cytopathology consistent with HSV infection (HSV CPE).
(§2) On day 10 PI, the animals were sacrificed, the corneal epithelium was scraped from the eyes and epithelial and corneal stromal cultures were preformed on HFF cell monolayers. The separation of epithelial virus from deeper stromal virus infection allows for analysis of HSV in these distinct corneal layers. Corneal epithelial and stromal co-cultures were evaluated daily by inverted light microscopy.
At sacrifice, trigeminal ganglia were removed, washed in HBSS, minced and floated over duplicate HFF cell monolayers. The cell co-cultures were monitored by inverted light microscopy for 2 weeks. Negative cultures were blind passaged twice at 7 day intervals. Detection of HSV CPE in the whole-cell co-cultures was scored either positive or negative. HSV recovery from inventive compound-treated, TFT-treated and placebo-treated trigeminal ganglia was compared and differences in recovery rates analyzed.
as §2, with “7” for “10”, “performed” for “preformed”

RE strain HSV-1 [3] = assay: Topical efficacy in RE strain HSV-1-induced stromal keratitis in the rabbit; assay type: in vivo, NZW rabbit
Method: The following examples describe topical ocular evaluation of the inventive compounds during RE strain HSV-1-induced stromal keratitis in the rabbit. These evaluations included analysis of the topical efficacy of both the inventive compounds alone, or, in certain instances, in combination with trifluorothymidine (TFT). The evaluation was carried out by the combined analysis of both clinical and virological (HSV-1 recovery) parameters. The specified number of NZW rabbits (1.5-2.0 kg) were used. Animals were received at least two days prior to inoculation to allow them to accommodate to the conditions in the vivarium facility. This conditioning of the animals prior to inoculation minimizes animal variability. After the accommodation, the animals received a slit-lamp examination to exclude any animals with pre-existing anterior segment ocular defects. Animals were bi-laterally inoculated by intrastromal injection of 10^5 PFU RE strain HSV-1. The animals were then replaced individually into cages. On day number three post-inoculation (PI), the animals were evaluated by slit-lamp microscopy. Corneal stromal, iris and conjunctival disease were graded on an increasing scale of severity from 0+ to 4+. After evaluation, the animals were divided into a specified number of groups each containing an equal number of animals based on a matched corneal stromal involvement. Topical therapy was initiated immediately after animal groupings. All animals received daily slit-lamp evaluations from day 3 through 7 PI. The ocular HSV-1 induced disease severity was recorded daily. […] Differences in disease resolution and development of stromal alterations are statistically analyzed. Virus recovery during and after topical therapy was compared. The topical efficacy of Compounds 23 and 96 on stromal HSV-1 infection in the rabbit model of stromal keratitis was evaluated. All animals received daily slit lamp evaluations from day 3 through day 7 and on days 9 and 10 PI. The ocular HSV-1-induced disease severity was recorded daily. The topical efficacy of Compounds 23, 96 and 82 on stromal HSV-1 infection in the rabbit model of stromal keratitis was evaluated. All animals received daily slit lamp evaluations for day 3 through day 7 PI. The ocular HSV-1-induced disease severity was recorded daily. The topical efficacy of Compounds 23 and 96 in combination with TFT on stromal HSV-1 infection in the rabbit model of stromal keratitis was evaluated. Groups 1, 2 and 3 each have 5 animals for a total of 10 eyes per combination therapy. This allowed minimization of individual animal variability and performance of a statistical analysis on the results of the combination therapies. Groups 3, 4 and 5 have 2 animals each. These single-agent therapies were used to verify previously reported data on the efficacy of these compounds. The compounds are used at a lower frequency of delivery to match the dosing regimen of the combination-agent group. Consequently, the study also provides comparative information on Compounds 23 and 96 as a lower frequency of topical administration (4 times per day vs. 9 times per day in previous studies).

CC([O-])=CC(C)=NCCN=C(C)C=C(C)[O-].Cc1cnc[nH]1.Cc1cnc[nH]1.[Br-].[Co+3] [Compound 97]
virucidal efficacy (HSV-1 titer) (HSV-1 McKrae Strain; Run 1, 0.0001 mg/ml): 10^5 PFU/ml
virucidal efficacy (HSV-1 titer) (HSV-1 McKrae Strain; Run 1, 0.001 mg/ml): 10^5 PFU/ml
virucidal efficacy (HSV-1 titer) (HSV-1 McKrae Strain; Run 1, 0.01 mg/ml): 10^4 PFU/ml
virucidal efficacy (HSV-1 titer) (HSV-1 McKrae Strain; Run 1, 0.1 mg/ml): 10^1 PFU/ml
virucidal efficacy (HSV-1 titer) (HSV-1 McKrae Strain; Run 1, 1 mg/ml): 0 PFU/ml
virucidal efficacy (HSV-1 titer) (HSV-1 McKrae Strain; Run 1, 5 mg/ml): 0 PFU/ml
virucidal efficacy (HSV-1 titer) (HSV-1 McKrae Strain; Run 2, 0.001 mg/ml): 10^4 PFU/ml
virucidal efficacy (HSV-1 titer) (HSV-1 McKrae Strain; Run 2, 0.01 mg/ml): 10^1 PFU/ml
virucidal efficacy (HSV-1 titer) (HSV-1 McKrae Strain; Run 2, 0.1 mg/ml): 0 PFU/ml
virucidal efficacy (HSV-1 titer) (HSV-1 McKrae Strain; Run 2, 1 mg/ml): 0 PFU/ml
virucidal efficacy (HSV-1 titer) (HSV-1 McKrae Strain; Run 2, 5 mg/ml): 0 PFU/ml
effective virucidal concentration IC50 (HSV-1 McKrae Strain; Experiment 5 (Table 14), HSV-1): 0.1-.1 mg/ml
effective virucidal concentration IC90 (HSV-1 McKrae Strain; Experiment 5 (Table 14), HSV-1): 100 to 1000 µg/mL
toxicity effects ([1]; 24 h, 0.00 mg/ml (so in the source)): -
toxicity effects ([1]; 24 h, 0.01 mg/ml): -
toxicity effects ([1]; 24 h, 0.5 mg/ml): -
toxicity effects ([1]; 48 h, 0.00 mg/ml (so in the source)): -
toxicity effects ([1]; 48 h, 0.01 mg/ml): -
toxicity effects ([1]; 48 h, 0.5 mg/ml): -
toxicity effects ([1]; 48 h, 5 mg/ml): +

O=c1[nH]c(=O)n([C@H]2C[C@H](O)[C@@H](CO)O2)cc1C(F)(F)F [TFT, trifluorothymidine]
HSV-1 recovery, corneal epithelium (C.E.) (RE strain HSV-1 [2]; Example 3 (Table 22)): 60%
HSV-1 recovery, corneal stroma (C.S.) (RE strain HSV-1 [2]; Example 3 (Table 22)): 60%
HSV-1 recovery, trigeminal ganglia (T.G.) (RE strain HSV-1 [2]; Example 3 (Table 22)): 60%
HSV-1 recovery, tear film (positive samples of total) (RE strain HSV-1 [2]; Example 3 (Table 22), day 3 PI): 100%
HSV-1 recovery, tear film (positive samples of total) (RE strain HSV-1 [2]; Example 3 (Table 22), day 5 PI): 80%
HSV-1 recovery, tear film (positive samples of total) (RE strain HSV-1 [2]; Example 3 (Table 22), day 7 PI): 30%
HSV-1 recovery, tear film (positive samples of total) (RE strain HSV-1 [2]; Example 3 (Table 22), day 9 PI): 0%
HSV-1 recovery, corneal stroma (RE strain HSV-1 [2]; Example 5 (Table 23)): 70%
HSV-1 recovery (positive cultures per total) (RE strain HSV-1 [2]; Example 5 (Table 23), column 1): 0%
HSV-1 recovery (positive cultures per total) (RE strain HSV-1 [2]; Example 5 (Table 23), column 3): 100%
HSV-1 recovery (positive cultures per total) (RE strain HSV-1 [2]; Example 5 (Table 23), column 5): 90%
HSV-1 recovery (positive cultures per total) (RE strain HSV-1 [2]; Example 5 (Table 23), column 7): 70%
efficacy ranking during stromal HSV-1 infection (RE strain HSV-1 [3]; Example 3, all eyes, FIG. 1, 1 mg/ml (TFT 0.1%), 9x/day, 5 days): Compound 96>>Compound 23>TFT>Placebo
efficacy ranking, average stromal disease scores (RE strain HSV-1 [3]; Example 4, FIG. 2): Compound 96>Compound 82>Compound 23>TFT=Placebo
effect on stromal disease severity/progression (RE strain HSV-1 [3]; Example 5, FIG. 5, initial stromal disease <0.5 on day 3 PI): ineffective in reducing the stromal disease severity
effect on development and progression of stromal disease (RE strain HSV-1 [3]; Example 5, FIG. 7, score <0.5 on day 3 PI, 4 times per day): ineffective in reducing the development and progression of stromal disease
